Source: patent US20250313569A1, “Pharmaceutical Compounds And Compositions As Modulators Of MAS-Related G-Protein Receptor X2” (Enanta Pharmaceuticals, Inc., priority 2024, published 2025)

Molecular target: T1, MRGPRX2 LAD2 (Homo sapiens, UniProt Q96LB1)
T1 construct: host or cells: LAD2 human mast cells
T1 sequence (Q96LB1 1-330): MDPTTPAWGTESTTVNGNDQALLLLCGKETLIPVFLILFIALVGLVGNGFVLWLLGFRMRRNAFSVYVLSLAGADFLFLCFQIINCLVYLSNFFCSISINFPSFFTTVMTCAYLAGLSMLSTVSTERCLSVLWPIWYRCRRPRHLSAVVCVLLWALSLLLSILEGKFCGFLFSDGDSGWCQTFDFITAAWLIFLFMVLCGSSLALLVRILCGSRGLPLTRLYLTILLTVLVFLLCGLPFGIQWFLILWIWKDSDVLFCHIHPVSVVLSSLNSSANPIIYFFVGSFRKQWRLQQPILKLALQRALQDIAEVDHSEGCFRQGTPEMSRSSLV
Test: LAD2 β-hexosaminidase release assay (degranulation), Cortistatin-14 at EC75
Type: cell-based
Settings: LAD2 cells; 1 hour compound incubation, Cortistatin-14 at EC75 for 30 minutes; percent degranulation (β-hexosaminidase)
Description: LAD2 cells obtained from the NIH were cultured in StemPro34 (Gibco) serum-free media supplemented with GlutaMax, penicillin and streptomycin, and 100 ng/mL SCF (Invitrogen). Cells were maintained in a 37° C., 5% CO2 humidified incubator at a concentration of 2-5E5 cells/mL, with hemidepletion once a week.
One day prior to the assay, cells were starved of SCF at a concentration of 2.3E5 cells/mL. On the day of the assay cells were washed twice in Tyrode's Buffer containing 0.04% BSA (assay buffer) and plated in a 96 well-v-bottom assay plate at 20,000 cells per well in 80 μL of assay buffer. Compounds were solubilized at 10 mM DMSO and added as a 10-fold overconcentrated 8-point curve in assay buffer in a volume of 10 μL using the JANUS liquid handler. Assay plates were incubated for 1 hour at 37° C. Cortistatin-14 was diluted in assay buffer to […] its predetermined EC75 and added to the assay plates in a volume of 10 μL. Assay plates were incubated at 37° C. for 30 minutes. After incubation, cells were pelleted and 50 μL of supernatant from each well was transferred to a 96 well flat bottom plate containing 100 μL of substrate solution (3.5 mg/mL p-Nitrophenyl-N-acetyl-β-D-glucosaminide (Sigma Aldrich) in 40 mM Citrate Buffer (Thermo Fisher)). The remaining cell pellets were lysed with 150 μL of 0.1% Triton-X-100 and mixed thoroughly. 50 μL of lysate was transferred to a 96-well flat bottom plate containing 100 μL of substrate solution. Plates with supernatants and lysates were incubated at 37° C. for 90 minutes prior to addition of 50 μL of 400 mM Glycine buffer (pH 10.7). The plates were read on a Perkin Elmer Envision plate reader at an Abs of 405 nanometers. Percent degranulation was calculated and Xlfit was used to calculate an EC50 value for each compound using a 4-parameter logistic curve fitting model. EC50 ranges are reported as follows: A<100 nM; B 0.1-1 μM; C>1 μM.

Row | Structure (SMILES) | EC50 [nM]
1 | CC(=O)N1C[C@@H](NC(=O)c2cn(CC(F)(F)F)nc2C(F)(F)F)C[C@@H](Nc2cc(C(F)(F)F)nc3ccc(Cl)cc23)C1 [Example 96] | < 100
2 | CC(=O)N1C[C@@H](NC(=O)c2cn(CC(F)(F)F)nc2C2CC2)C[C@@H](Nc2cc(C(F)(F)F)nc3ccc(Cl)cc23)C1 [Example 109] | < 100
3 | O=C(N[C@H]1C[C@@H](Nc2cc(C(F)(F)F)nc3ccc(Cl)cc23)CN(C(=O)[C@H]2CC2(F)F)C1)c1cn(CC(F)(F)F)nc1C1CC1 [Example 74] | < 100
4 | CC(C)(O)Cn1cc(C(=O)N[C@H]2C[C@@H](Nc3cc(C(F)(F)F)nc4ccc(Cl)cc34)CN(C(=O)C3(F)CC3)C2)c(Cl)n1 [Example 81] | < 100
5 | O=C(N[C@H]1C[C@@H](Nc2cc(C(F)(F)F)nc3ccc(Cl)cc23)CN(C(=O)C(F)(F)F)C1)c1cn(CC(F)(F)F)nc1C1CC1 [Example 89] | < 100
6 | CC(C)(O)Cn1cc(C(=O)N[C@H]2C[C@@H](Nc3cc(C(F)(F)F)nc4ccc(Cl)cc34)CN(C(=O)COC(F)(F)F)C2)c(Cl)n1 [Example 80] | < 100
7 | O=C(N[C@H]1C[C@@H](Nc2cc(C(F)(F)F)nc3ccc(Cl)cc23)CN(c2ccccn2)C1)c1cn(CC(F)(F)F)nc1C1CC1 [Example 92] | < 100
8 | Cn1nnc(N2C[C@@H](NC(=O)c3cn(CC(F)(F)F)nc3C3CC3)C[C@@H](Nc3cc(C(F)(F)F)nc4ccc(Cl)cc34)C2)n1 [Example 93] | < 100
9 | CC(=O)N1C[C@@H](NC(=O)c2cn(CC(F)F)nc2C2CC2)C[C@@H](Nc2cc(C(F)(F)F)nc3ccc(Cl)cc23)C1 [Example 110] | < 100
10 | Cc1nn(CC(C)(C)O)cc1C(=O)N[C@H]1C[C@@H](Nc2cc(C(F)(F)F)nc3ccc(Cl)cc23)CN(C(=O)C(F)F)C1 [Example 117] | < 100
11 | CC(C)(O)Cn1cc(C(=O)N[C@H]2C[C@@H](Nc3c(F)c(C(F)(F)F)nc4ccc(Cl)cc34)CN(C(=O)C(C)(C)F)C2)c(Cl)n1 [Example 83] | < 100
12 | O=C(N[C@H]1C[C@@H](Nc2cc(C(F)(F)F)nc3ccc(Cl)cc23)CN(C2COC2)C1)c1cn(CC(F)(F)F)nc1C1CC1 [Example 91] | 100 to 1000
13 | CC(=O)N1C[C@@H](NC(=O)c2cn(CS(C)(=O)=O)nc2Cl)C[C@@H](Nc2cc(C(F)(F)F)nc3ccc(Cl)cc23)C1 [Example 101] | < 100
14 | CS(=O)(=O)Nc1cccc(C(=O)N[C@H]2C[C@@H](Nc3cc(C(F)(F)F)nc4ccc(Cl)cc34)CN(C(=O)C(F)F)C2)c1 [Example 72] | < 100
15 | CC(C)(O)Cn1cc(C(=O)N[C@H]2C[C@@H](Nc3cc(C(F)(F)F)nc4ccc(Cl)cc34)CN(C(=O)c3ccccc3F)C2)c(Cl)n1 [Example 85] | < 100
16 | CC(C)(O)Cn1cc(C(=O)N[C@H]2C[C@@H](Nc3cc(C(F)(F)F)nc4ccc(Cl)cc34)CN(C(=O)OCC(F)(F)F)C2)c(Cl)n1 [Example 84] | < 100
17 | CC(C)(O)Cn1cc(C(=O)N[C@H]2C[C@@H](Nc3cc(C(F)(F)F)nc4ccc(Cl)cc34)CN(C3CC(F)(F)C3)C2)c(Cl)n1 [Example 76] | 100 to 1000
18 | COCc1nn(CC(F)(F)F)cc1C(=O)N[C@H]1C[C@@H](Nc2cc(C(F)(F)F)nc3ccc(Cl)cc23)CN(C(C)=O)C1 [Example 102] | < 100
19 | CC(=O)N1C[C@@H](NC(=O)c2c[nH]c3cccnc23)C[C@@H](Nc2cc(C(F)(F)F)nc3ccc(Cl)cc23)C1 [Example 97] | < 100
20 | CC(=O)N1C[C@@H](NC(=O)c2cn(CC(F)F)nc2C(F)(F)F)C[C@@H](Nc2cc(C(F)(F)F)nc3ccc(Cl)cc23)C1 [Example 99] | < 100
21 | CC(C)(O)Cn1cc(C(=O)N[C@H]2C[C@@H](Nc3cc(C(F)(F)F)nc4ccc(Cl)cc34)CN(C(=O)C(F)(F)c3ccc(C#N)cc3)C2)c(Cl)n1 [Example 88] | < 100
22 | COCC(F)(F)C(=O)N1C[C@@H](NC(=O)c2cn(CC(F)(F)F)nc2C2CC2)C[C@@H](Nc2cc(C(F)(F)F)nc3ccc(Cl)cc23)C1 [Example 87] | < 100
23 | CC(=O)N1C[C@@H](NC(=O)c2ccc3[nH]ccc3c2)C[C@@H](Nc2cc(C(F)(F)F)nc3ccc(Cl)cc23)C1 [Example 111] | < 100
24 | COCC(F)(F)C(=O)N1C[C@@H](NC(=O)c2cn(CC(C)(C)O)nc2Cl)C[C@@H](Nc2cc(C(F)(F)F)nc3ccc(Cl)cc23)C1 [Example 79] | < 100
25 | CC(=O)N1C[C@@H](NC(=O)c2cn(C3CCS(=O)(=O)CC3)nc2C(F)(F)F)C[C@@H](Nc2cc(C(F)(F)F)nc3ccc(Cl)cc23)C1 [Example 106] | < 100

Other lines, results leading:

Row | EC50 [nM] | Structure (SMILES)
26 | < 100 | CC(=O)N1C[C@@H](NC(=O)c2cn(CC(F)(F)F)nc2C2CC2)C[C@@H](Nc2cc(C(F)(F)F)nc3ccc(OC(F)(F)F)cc23)C1 [Example 132]
27 | < 100 | CC(=O)N1C[C@@H](NC(=O)N2CCc3cn(C)nc3C2)C[C@@H](Nc2cc(C(F)(F)F)nc3ccc(Cl)cc23)C1 [Example 129]
28 | < 100 | CC(=O)N1C[C@@H](NC(=O)c2cn(CC(F)(F)F)nc2C2CC2)C[C@@H](Nc2cc(C(F)(F)F)nc3cc(F)c(Cl)cc23)C1 [Example 133]
29 | < 100 | O=C(N[C@H]1C[C@@H](Nc2cc(C(F)(F)F)nc3ccc(Cl)cc23)CN(C(=O)C(F)F)C1)N1CC[C@H](O)C1 [Example 127]
30 | < 100 | CC(=O)N1C[C@@H](NC(=O)c2cn(CC(F)(F)F)nc2C2CC2)C[C@@H](Nc2c(F)c(C(F)(F)F)nc3ccc(Cl)cc23)C1 [Example 136]
31 | < 100 | C[C@H](O)Cn1cc(C(=O)N[C@H]2C[C@@H](Nc3cc(C(F)(F)F)nc4ccc(Cl)cc34)CN(C(=O)C(F)F)C2)c(Cl)n1 [Example 124]
32 | < 100 | O=C(N[C@H]1C[C@@H](Nc2cc(C(F)(F)F)nc3ccc(Cl)cc23)CN(C(=O)C(F)F)C1)c1cn(C[C@H](O)C(F)F)nc1Cl [Example 120]
33 | < 100 | CC(=O)N1C[C@@H](NC(=O)c2cn(CC(F)(F)F)nc2C2CC2)C[C@@H](Nc2c(F)c(C(F)(F)F)nc3cc(F)c(Cl)cc23)C1 [Example 130]
34 | < 100 | C[C@@H]1CCCN1C(=O)N[C@H]1C[C@@H](Nc2cc(C(F)(F)F)nc3ccc(Cl)cc23)CN(C(=O)C(F)F)C1 [Example 126]
35 | < 100 | CC(C)(O)Cn1cc(C(=O)N[C@H]2C[C@@H](Nc3cc(C(F)(F)F)nc4ccc(Cl)cc34)CN(C(=O)C(F)F)C2)c(Cl)n1 [Example 118]
36 | < 100 | O=C(N[C@H]1C[C@@H](Nc2cc(C(F)(F)F)nc3ccc(Cl)cc23)CN(C(=O)C(F)F)C1)N1CCCC2(CC2)C1 [Example 128]
